Results as given in patent publication US5215907A, “Thermostable acid protease from sulfolobus acidocaldarius” (Oklahoma Medical Research Foundation, priority 1992, dated 1993).
“Also recorded” adds a separate entry of the source. Numbered stars: 1 amine (or outer) side, 2 acyl side, 3 side chain; on linkers, the order of the positions; unused ones are H or OH. Peptide text beside a SMILES is read from it. CO = O=C([*:1])[*:2]

Target: T1, thermopsin, thermostable acid protease purified from Sulfolobus acidocaldarius culture medium (Sulfolobus acidocaldarius, UniProt P17118)
T1 construct: The purification of thermopsin, therefore, was carried out using culture media as starting material; endogenous in cells; host or cells: Sulfolobus acidocaldarius (natural producer); enzyme purified in-house from the culture medium, not recombinant
T1 sequence (P17118 42-340): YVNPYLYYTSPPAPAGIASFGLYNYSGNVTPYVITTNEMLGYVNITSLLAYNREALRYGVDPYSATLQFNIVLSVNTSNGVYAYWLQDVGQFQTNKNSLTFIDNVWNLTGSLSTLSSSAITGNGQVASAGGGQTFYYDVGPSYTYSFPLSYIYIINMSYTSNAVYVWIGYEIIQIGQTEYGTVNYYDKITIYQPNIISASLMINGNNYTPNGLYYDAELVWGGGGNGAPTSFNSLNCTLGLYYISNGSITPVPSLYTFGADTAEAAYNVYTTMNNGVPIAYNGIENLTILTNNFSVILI
Experiment: Effects of proteinase inhibitors on thermopsin proteolytic activity (14C-methylated hemoglobin assay)
Type: biochemical
Conditions: no concentration stated; see Table II
Protocol: Proteolytic activity is routinely assayed using ^14 C-methylated bovine hemoglobin as substrate, as prepared according to the method of Lin, et al., J. Biol. Chem., (1989, in press). The assay mixture, containing 0.51% hemoglobin substrate and thermopsin in 0.1 ml of 0.1M sodium formate, pH 3.2, is placed in an Eppendorf tube. After incubation at 80° C. for a period of time between 5 to 30 min, depending on the level of activity of thermopsin used, an aliquot of 0.1 ml of 10% trichloracetic acid is added to stop the reaction and precipitate the protein. After removal of the precipitate by centrifugation, the radioactivity of an aliquot of the clear supernate is determined in a scintillation counter.
The effect of various protease inhibitors on the activity of thermopsin was tested.
Thermopsin is preincubated with the indicated level of inhibitor in 0.1 M
phosphate buffer, pH 6.0, containing 1 mM EDTA and DTT at 37° C.
for 5 min. Sodium formate (pH 3.2) and ^14 CHemoglobin is then added
to a concentration as described above. The enzyme assay is then carried
out at 80° C. for 15 min. Enzyme activity is expressed as percent

SMILES	effect of inhibitor on thermopsin activity (in words)
CCCCC(NC(=O)C=[N+]=[N-])C(=O)OC (racemic) [DAN, diazoacetyl-DL-norleucinemethlyester]	not inactivated; also recorded: no effect
CC(C)[C@H](NC(=O)[C@H](CCCNC(=N)N)NC(=O)N[C@@H](Cc1ccccc1)C(=O)O)C(=O)N[C@H](C=O)CCCNC(=N)N [Antipain, antipain] ({Phe-CO}-Arg-Val-Arg-aldehyde)	inhibited; also recorded: significant inhibition
CCN1C(=O)C=CC1=O [N-ethylmaleimide]	little effect
O=S(=O)(F)Cc1ccccc1 [PMSF, phenylmethylsulfonyl fluoride]	significantly inactivate; also recorded: significant inhibition
Cc1ccc(S(=O)(=O)N[C@@H](CCCCN)C(=O)CCl)cc1 [TLCK, N-p-Tosyl-1-lysine chloromethyl ketone]	much less effective
Cc1ccc(S(=O)(=O)N[C@@H](Cc2ccccc2)C(=O)CCl)cc1 [TPCK, N-Tosyl-L-phenylalanine chloromethyl ketone]	significantly inactivate; also recorded: significant inhibition
